Here are results for 24 compounds from patent US11419869B2, “Dosage forms and regimens for amino acid compounds” (Pliant Therapeutics, Inc., priority 2019, dated 2022).

The target of this assay is recombinant human integrin αvβ6 (Homo sapiens (Human), UniProt P06756+P18564). Description: Solid Phase Integrin αvβ6 Binding Assay (Examples B1, B2). The following applies: TGFβ1 LAP ligand, values given in four ranges, read-out: αvβ6 Inhibition IC50 (nM)-range. On the procedure:
(§1) Microplates were coated with recombinant human integrin αvβ6 (2 μg/mL) in PBS (100 μL/well 25° C., overnight). The coating solution was removed, washed with wash buffer (0.05% Tween 20; 0.5 mM MnCl2; in 1×TBS). The plate was blocked with 200 μL/well of Block Buffer (1% BSA; 5% sucrose; 0.5 mM MnCl2; in 1×TBS) at 37° C. for 2 h. Dilutions of testing compounds and recombinant TGFβ1 LAP (0.67 μg/mL) in binding buffer (0.05% BSA; 2.5% sucrose; 0.5 mM MnCl2; in 1×TBS) were added. The plate was incubated for 2 hours at 25° C., washed, and incubated for 1 hour with Biotin-Anti-hLAP. Bound antibody was detected by peroxidase-conjugated streptavidin. The IC50 values for testing compounds were calculated by four-parameter logistic regression.
The compounds tested were compound samples prepared according to procedures described in the Synthetic Examples section, with the stereochemical purity as indicated in the Examples.
as §1, with “A third series of exemplary compounds was selected for testing in the solid phase integrin αvβ6 binding assay. The compounds tested were compound samples prepared according to procedures described in the Synthetic Examples section, with the stereochemical purity as indicated in the Examples. As in Example B1, microplates were coated” for “Microplates were coated”, “calculated by a four-parameter logistic” for “calculated by four-parameter logistic”

Where only a bound is given, the exact number is not on record here.

recombinant human integrin αvβ6, sequence (P06756 31-992): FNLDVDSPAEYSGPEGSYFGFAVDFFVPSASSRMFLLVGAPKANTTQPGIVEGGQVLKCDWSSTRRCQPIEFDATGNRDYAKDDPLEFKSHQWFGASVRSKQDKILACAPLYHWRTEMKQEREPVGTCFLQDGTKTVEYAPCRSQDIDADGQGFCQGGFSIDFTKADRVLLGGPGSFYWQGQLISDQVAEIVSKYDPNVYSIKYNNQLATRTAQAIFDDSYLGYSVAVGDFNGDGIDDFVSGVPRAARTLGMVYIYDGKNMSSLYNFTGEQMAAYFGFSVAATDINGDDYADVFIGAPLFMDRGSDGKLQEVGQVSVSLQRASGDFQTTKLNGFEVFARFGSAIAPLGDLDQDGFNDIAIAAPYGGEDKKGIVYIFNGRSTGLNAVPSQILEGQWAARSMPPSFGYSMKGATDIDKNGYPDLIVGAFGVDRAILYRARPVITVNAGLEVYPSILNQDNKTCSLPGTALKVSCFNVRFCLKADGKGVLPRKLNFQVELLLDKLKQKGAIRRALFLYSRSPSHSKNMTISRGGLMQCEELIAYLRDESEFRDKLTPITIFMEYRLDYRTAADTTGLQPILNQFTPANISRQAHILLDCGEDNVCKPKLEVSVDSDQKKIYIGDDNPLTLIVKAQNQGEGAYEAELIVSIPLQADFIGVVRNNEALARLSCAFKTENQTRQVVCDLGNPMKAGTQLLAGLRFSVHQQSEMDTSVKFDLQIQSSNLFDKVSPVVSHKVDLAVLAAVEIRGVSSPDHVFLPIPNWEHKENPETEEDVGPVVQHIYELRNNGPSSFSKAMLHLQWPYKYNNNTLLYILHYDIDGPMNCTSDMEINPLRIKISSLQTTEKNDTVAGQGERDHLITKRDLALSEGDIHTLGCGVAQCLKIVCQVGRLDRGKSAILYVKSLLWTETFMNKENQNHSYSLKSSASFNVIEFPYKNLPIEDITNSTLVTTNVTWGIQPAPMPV
recombinant human integrin αvβ6, sequence (P18564 22-707): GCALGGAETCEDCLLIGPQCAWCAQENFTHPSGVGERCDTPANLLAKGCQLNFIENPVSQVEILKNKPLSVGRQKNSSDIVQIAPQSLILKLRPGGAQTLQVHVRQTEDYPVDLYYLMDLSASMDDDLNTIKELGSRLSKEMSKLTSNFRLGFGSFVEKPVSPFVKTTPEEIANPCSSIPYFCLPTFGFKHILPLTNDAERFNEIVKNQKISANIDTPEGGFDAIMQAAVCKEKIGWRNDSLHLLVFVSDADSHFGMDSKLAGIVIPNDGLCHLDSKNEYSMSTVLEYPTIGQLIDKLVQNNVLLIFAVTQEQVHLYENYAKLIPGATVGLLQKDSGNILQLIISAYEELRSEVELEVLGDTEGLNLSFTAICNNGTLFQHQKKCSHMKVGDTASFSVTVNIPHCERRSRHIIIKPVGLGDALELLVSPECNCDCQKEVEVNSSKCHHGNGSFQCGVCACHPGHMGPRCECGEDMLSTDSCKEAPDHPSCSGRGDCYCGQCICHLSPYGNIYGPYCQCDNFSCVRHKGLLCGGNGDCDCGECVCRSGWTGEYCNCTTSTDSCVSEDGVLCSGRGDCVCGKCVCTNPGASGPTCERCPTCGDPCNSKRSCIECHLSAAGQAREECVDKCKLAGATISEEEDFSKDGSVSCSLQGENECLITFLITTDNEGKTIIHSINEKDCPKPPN

Usually IC50 stands for the concentration that gives 50% inhibition. Turning to `COCCN(CCCCc1ccc2c(n1)NCCC2)CC[C@H](Nc1ncnc2cc(F)ccc12)C(=O)O` [Compound 7, (S)-2-((7-fluoroquinazolin-4-yl)amino)-4-((2-methoxyethyl) (4-(5,6,7,8-tetrahydro-1,8-naphthyridin-2-yl)butyl)amino) butanoic acid], the IC50 was less than 50 nM.

Consider `O=C(O)[C@H](CCN(CCCCc1ccc2c(n1)NCCC2)C1CC(F)(F)C1)Nc1ncnc2ccccc12` [Compound 9, (S)-4-((3,3-difluorocyclobutyl) (4-(5,6,7,8-tetrahydro-1,8-naphthyridin-2-yl)butyl)amino)-2-(quinazolin-4-ylamino) butanoic acid], for which the IC50 was more than 1000 nM.

For the compound `COCCN(CCCCc1ccc2c(n1)NCCC2)CC[C@H](Nc1nc(C)nc2ccccc12)C(=O)O` [Compound 10, (S)-4-((2-methoxyethyl) (4-(5,6,7,8-tetrahydro-1,8-naphthyridin-2-yl)butyl)amino)-2-((2-methylquinazolin-4-yl)amino) butanoic acid], the IC50 was less than 50 nM.

With `COCCN(CCCCc1ccc2c(n1)NCCC2)CC[C@H](Nc1ncnc2ncccc12)C(=O)O` [Compound 11, (S)-4-((2-methoxyethyl) (4-(5,6,7,8-tetrahydro-1,8-naphthyridin-2-yl)butyl)amino)-2-(pyrido[2,3-d]pyrimidin-4-ylamino) butanoic acid], the concentration for half-maximal inhibition (IC50) is less than 50 nM.

As to `COCCN(CCCCc1ccc2c(n1)NCCC2)CC[C@H](Nc1nc(C)nc2cc(F)ccc12)C(=O)O` [Compound 12, (S)-2-((7-fluoro-2-methylquinazolin-4-yl)amino)-4-((2-methoxyethyl) (4-(5,6,7,8-tetrahydro-1,8-naphthyridin-2-yl)butyl)amino) butanoic acid], the IC50 was less than 50 nM.

Take `COCCN(CCCCc1ccc2c(n1)NCCC2)CC[C@H](Nc1nc(C(F)(F)F)nc2ccccc12)C(=O)O` [Compound 14, (S)-4-((2-methoxyethyl) (4-(5,6,7,8-tetrahydro-1,8-naphthyridin-2-yl)butyl)amino)-2-((2-(trifluoromethyl)quinazolin-4-yl)amino) butanoic acid]: the IC50 was less than 50 nM.

Consider `COCCN(CCCCc1ccc2c(n1)NCCC2)CC[C@H](Nc1ncnc2c(C(F)(F)F)cccc12)C(=O)O` [Compound 15, (S)-4-((2-methoxyethyl) (4-(5,6,7,8-tetrahydro-1,8-naphthyridin-2-yl)butyl)amino)-2-((8-(trifluoromethyl)quinazolin-4-yl)amino) butanoic acid], for which the half-inhibitory concentration (IC50) was less than 50 nM.

Take `COCCN(CCCCc1ccc2c(n1)NCCC2)CC[C@H](Nc1ncnc2cccnc12)C(=O)O` [Compound 16, (S)-4-((2-methoxyethyl) (4-(5,6,7,8-tetrahydro-1,8-naphthyridin-2-yl)butyl)amino)-2-(pyrido[3,2-d]pyrimidin-4-ylamino) butanoic acid]: the 50% inhibitory concentration (IC50) is less than 50 nM.

As for `COCCN(CCCCc1ccc2c(n1)NCCC2)CC[C@H](Nc1ncnc2cnccc12)C(=O)O` [Compound 17, (S)-4-((2-methoxyethyl) (4-(5,6,7,8-tetrahydro-1,8-naphthyridin-2-yl)butyl)amino)-2-(pyrido[3,4-d]pyrimidin-4-ylamino) butanoic acid], the 50% inhibitory concentration (IC50) is less than 50 nM.

Turning to `COCCN(CCCCc1ccc2c(n1)NCCC2)CC[C@H](Nc1ncnc2cccc(F)c12)C(=O)O` [Compound 18, (S)-2-((5-fluoroquinazolin-4-yl)amino)-4-((2-methoxyethyl) (4-(5,6,7,8-tetrahydro-1,8-naphthyridin-2-yl)butyl)amino) butanoic acid], the 50% inhibitory concentration (IC50) was less than 50 nM.

`COCCN(CCCCc1ccc2c(n1)NCCC2)CC[C@H](Nc1ncnc2ccc(F)cc12)C(=O)O` [Compound 19, (S)-2-((6-fluoroquinazolin-4-yl)amino)-4-((2-methoxyethyl) (4-(5,6,7,8-tetrahydro-1,8-naphthyridin-2-yl)butyl)amino) butanoic acid]: the concentration for half-maximal inhibition (IC50) is less than 50 nM.

In the case of `COCCN(CCCCc1ccc2c(n1)NCCC2)CC[C@H](Nc1ncnc2c(F)cccc12)C(=O)O` [Compound 20, (S)-2-((8-fluoroquinazolin-4-yl)amino)-4-((2-methoxyethyl) (4-(5,6,7,8-tetrahydro-1,8-naphthyridin-2-yl)butyl)amino) butanoic acid], the concentration for half-maximal inhibition (IC50) is less than 50 nM.

For `COCCN(CCCCc1ccc2c(n1)NCCC2)CC[C@H](Nc1ncnc2cc(F)c(F)cc12)C(=O)O` [Compound 21, (S)-2-((6,7-difluoroquinazolin-4-yl)amino)-4-((2-methoxyethyl) (4-(5,6,7,8-tetrahydro-1,8-naphthyridin-2-yl)butyl)amino) butanoic acid], the IC50 is less than 50 nM.

On to `COCCN(CCCCc1ccc2c(n1)NCCC2)CC[C@H](Nc1cc(C(F)(F)F)nc(C)n1)C(=O)O` [Compound 22, (S)-4-((2-methoxyethyl) (4-(5,6,7,8-tetrahydro-1,8-naphthyridin-2-yl)butyl)amino)-2-((2-methyl-6-(trifluoromethyl)pyrimidin-4-yl)amino) butanoic acid], for which the IC50 was less than 50 nM.

As to `COCCN(CCCCc1ccc2c(n1)NCCC2)CC[C@H](Nc1cc(C(F)F)ncn1)C(=O)O` [Compound 23, (S)-2-((6-(difluoromethyl)pyrimidin-4-yl)amino)-4-((2-methoxyethyl) (4-(5,6,7,8-tetrahydro-1,8-naphthyridin-2-yl)butyl)amino) butanoic acid], the concentration for half-maximal inhibition (IC50) is less than 50 nM.

Consider `COCCN(CCCCc1ccc2c(n1)NCCC2)CC[C@H](Nc1ccnc(C(F)(F)F)n1)C(=O)O` [Compound 24, (S)-4-((2-methoxyethyl) (4-(5,6,7,8-tetrahydro-1,8-naphthyridin-2-yl)butyl)amino)-2-((2-(trifluoromethyl)pyrimidin-4-yl)amino) butanoic acid], for which the 50% inhibitory concentration (IC50) is less than 50 nM.

As for `CO[C@@H](C)CN(CCCCc1ccc2c(n1)NCCC2)CC[C@H](Nc1ncnc2ccccc12)C(=O)O` [Compound 25, (S)-4-(((S)-2-methoxypropyl) (4-(5,6,7,8-tetrahydro-1,8-naphthyridin-2-yl)butyl)amino)-2-(quinazolin-4-ylamino) butanoic acid], the 50% inhibitory concentration (IC50) was less than 50 nM.

Consider `COCCN(CCCCc1ccc2c(n1)NCCC2)CC[C@H](Nc1cc(C)nc(C(F)(F)F)n1)C(=O)O` [Compound 26, (S)-4-((2-methoxyethyl) (4-(5,6,7,8-tetrahydro-1,8-naphthyridin-2-yl)butyl)amino)-2-((6-methyl-2-(trifluoromethyl)pyrimidin-4-yl)amino) butanoic acid], for which the half-maximal inhibitory concentration (IC50) is less than 50 nM.

`CS(=O)(=O)CCN(CCCCc1ccc2c(n1)NCCC2)CC[C@H](Nc1ncnc2ccccc12)C(=O)O` [Compound 27, (S)-4-((2-(methylsufonyl)ethyl) (4-(5,6,7,8-tetrahydro-1,8-naphthyridin-2-yl)butyl)amino)-2-(quinazolin-4-ylamino) butanoic acid]: the IC50 is less than 50 nM.

Take `O=C(O)[C@H](CCN(CCCCc1ccc2c(n1)NCCC2)CCOc1ccccc1)Nc1ncnc2ccccc12` [Compound 28, (S)-4-((2-phenoxyethyl) (4-(5,6,7,8-tetrahydro-1,8-naphthyridin-2-yl)butyl)amino)-2-(quinazolin-4-ylamino) butanoic acid]: the IC50 was less than 50 nM.

For `O=C(O)[C@H](CCN(CCCCc1ccc2c(n1)NCCC2)CCC(F)F)Nc1ncnc2ccccc12` [Compound 29, (S)-4-((3,3-difluoropropyl) (4-(5,6,7,8-tetrahydro-1,8-naphthyridin-2-yl)butyl)amino)-2-(quinazolin-4-ylamino) butanoic acid], the IC50 was less than 50 nM.

As to `O=C(O)[C@H](CCN(CCCF)CCCCc1ccc2c(n1)NCCC2)Nc1ncnc2ccccc12` [Compound 30, (S)-4-((3-fluoropropyl) (4-(5,6,7,8-tetrahydro-1,8-naphthyridin-2-yl)butyl)amino)-2-(quinazolin-4-ylamino) butanoic acid], the half-maximal inhibitory concentration (IC50) was less than 50 nM.

In the case of `COC[C@@H](F)CN(CCCCc1ccc2c(n1)NCCC2)CC[C@H](Nc1ncnc2ccccc12)C(=O)O` [Compound 31, (S)-4-(((S)-2-fluoro-3-methoxypropyl) (4-(5,6,7,8-tetrahydro-1,8-naphthyridin-2-yl)butyl)amino)-2-(quinazolin-4-ylamino) butanoic acid], the IC50 is less than 50 nM.

For `COC[C@@H](F)CN(CCCCc1ccc2c(n1)NCCC2)CC[C@H](Nc1nc(C)nc2cc(F)ccc12)C(=O)O` [Compound 32, (S)-2-((7-fluoro-2-methylquinazolin-4-yl)amino)-4-(((S)-2-fluoro-3-methoxypropyl) (4-(5,6,7,8-tetrahydro-1,8-naphthyridin-2-yl)butyl)amino) butanoic acid], the IC50 is less than 50 nM.
